Test results from US20250109120A1, “INDOLINE DERIVATIVES FOR TREATMENT AND/OR PREVENTION OF TUMOR OR CELL PROLIFERATIVE AND FIBROSIS DISEASES” (NATIONAL TAIWAN UNIVERSITY, priority 2023, published 2025).
pIC50: −log10 of the molar value.

Legend:
Format in all cases: cell-based, human
PC-3 cells [1] = test: MTT cell cytotoxicity assay
Experimental: (§1) FIGS. 2A-2D show the evaluation of CDK8 inhibition by compound k. […] Cell viability was measured by MTT assay, and the 50% inhibitory concentration (IC50) values were calculated by a sigmoidal dose-response equation. […] Whole-cell lysates were subjected to western blotting with the indicated antibodies. The results are shown as the mean t SEM from at least three independent experiments (*p<0.05, **p<0.01, and ***p<0.001 vs. control group; #p<0.05 vs. relevant control).
(§2) Cell cytotoxicity was evaluated using the MTT assay. […] Then, 0.5 mg/mL MTT was added, and the plates were incubated for an additional 2 h at 37° C. The cells were then pelleted and lysed in 100 μL of dimethyl sulfoxide, and the absorbance at 550 nm was measured with a microplate reader.

DU145 cells [2] = test: MTT cell cytotoxicity assay
Experimental: as §1, §2

DU145 cells [3] = test: LiCl-induced β-catenin signaling, western blot; conditions: LiCl 20 mM; senexin A 10 μM
Experimental: (§3) Inhibitory phosphorylation of GSK3β was evaluated through western blotting. […] Whole-cell lysates were subjected to western blotting with the indicated antibodies. FIGS. 11J-11K show the comparison of basal activities of the Akt/GSK3β axis between PC-3 and DU145 cells. […] The results are shown as the mean±SEM from at least three independent experiments (*p<0.05, **p<0.01, ***p<0.001 vs. control group; #p<0.05, ##p<0.01, and ###p<0.001 vs. relevant control).
(§4) The cells were incubated in lysis buffer for 10 min at 4° C., scraped off, incubated on ice for an additional 10 min and then centrifuged at 17,000 g for 30 min at 4° C. Protein samples were electrophoresed on SDS-PAGE gels, transferred to PVDF membranes and blocked with 5% fat-free milk in PBS for 30 min at room temperature. Immunoblotting was performed overnight with primary antibodies in PBS at 4° C., followed by incubation with HRP-conjugated secondary antibodies for 1 h at room temperature. Bound antibodies will be measured using an ECL reagent and exposed to a photographic film. In the immunoprecipitation assay, cell lysates were immunoprecipitated with 1 μg of antibody and A/G agarose beads overnight at 4° C. After washing the precipitated beads three times with 1 mL ice-cold cell lysis buffer, bound immune complexes were separated by 10% SDS-PAGE and analyzed with immunoblotting.

A549 cells [4] = test: Nuclear p-Smad3 T179 and RNA polymerase II pS2/S5 after TGF-β1, fractionation and western blot; conditions: compound k 5 μM, senexin A 5 μM, pirfenidone 1 mM; TGF-β1 10 ng/ml 3 h
Experimental: FIGS. 8A-8B show the inhibitory effects of cellular distributions of TGF-β1-induced p-Smad3 T179, RNA polymerase II pS2/S5, and Smad3 after treatment with compound k. Human alveolar epithelial A549 cells were incubated with compound k (5 μM), senexin A (5 μM), or pirfenidone (1 mM) for 1 h, followed by stimulation with TGF-β1 (10 ng/ml) for 3 h. Protein expressions in the cytoplasmic and nuclear fractions were subjected to a Western blot analysis using the indicated antibodies. α-Tubulin and histone H3 served as loading controls for the cytoplasmic and nuclear fractions, respectively. Results are shown as the mean±SEM of three independent experiments. **p<0.01 and ***p<0.001 compared to the control group; #p<0.05 and ##p<0.01 compared to the TGF-β1-treated group.
Cells (106) were incubated for 10 min at 4° C. in lysis buffer (20 mM HEPES at pH 7.4, 2 mM EGTA, 50 mM β-glycerophosphate, 0.1% Triton X-100, 10% glycerol, 1 mM DTT, 1 μg/mL of leupeptin, 5 μg/mL of aprotinin, 1 mM phenylmethylsulfonyl fluoride, and 1 mM sodium orthovanadate), scraped off, incubated on ice for an additional 10 min, and centrifuged at 17,000 g for 30 min at 4° C. Protein samples (20 μg) were then electrophoresed on SDS-polyacrylamide gel electrophoresis (PAGE) gels and transferred to a nitrocellulose membrane, which was then blocked by incubation for 30 min at room temperature with 5% bovine serum albumin (BSA) in Tris-buffered saline with 0.1% Tween-20 (TBST). Immunoblotting was performed by overnight incubation at 4° C. with primary antibodies in TBST, followed by incubation for 1 h at room temperature with horseradish peroxidase (HRP)-conjugated secondary antibodies. Bound antibodies were measured using enhanced chemiluminescence (ECL) reagent (GE Healthcare, UK) and exposed to photographic film.
A Nuclear/Cytosol Fractionation Kit (Biovision, USA) was used to separate the cytosolic and nuclear fractions. […]

DU145 cells [5] = test: TGF-β/Smad/RNA polymerase II signaling, western blot, fractionation, immunoprecipitation; conditions: 10 μM
Experimental: Whole-cell lysates were subjected to western blotting with the indicated antibodies. […] The proteins in the cytosol and nucleus were detected by western blotting analysis, and the proteins expression in the nucleus were quantified. […] The results are shown as the mean±SEM from at least three independent experiments (*p<0.05, **p<0.01, and ***p<0.001 vs. control group; #p<0.05, ##p<0.01, and ###p<0.001 vs. TGF-β1 treatment group; § p<0.05, §§ p<0.01 vs. indicated group).
as §4

A549 cells [6] = test: MTT cell viability assay; conditions: 12, 24 and 48 h, up to 10 μM
Experimental: FIGS. 4A-4B show the inhibition of epithelial-to-mesenchymal transition protein expressions by CDK8 inhibitors in human alveolar epithelial cells. […] Cell lysates were subjected to a Western blot analysis using the indicated antibodies. Results are shown as the mean t SEM from three independent experiments. *p<0.05, and ***p<0.001 compared to the control group; #p<0.05, ##p<0.01, and ###p<0.001 compared to the TGF-β1-treated group. […] Cell viabilities were determined by an MTT assay. Results are shown as the mean t SEM of three independent experiments.
Cell cytotoxicity was measured by a colorimetric MTT assay. […] After various treatments, 1 mg/mL of MTT was added, and the plates were incubated at 37° C. for an additional 2 h. Then cells were pelleted and lysed with 10% sodium dodecylsulfate (SDS) with 0.01 M HCl, and the absorbance at 570 nm was measured on a microplate reader.

PC-3 cells [7] = test: β-catenin target protein expression, western blot; conditions: 24 h
Experimental: as §3, §4

## CNC(=O)c1cc(Oc2ccc(NS(=O)(=O)c3ccc4c(c3)C(=C(C)C)C(=O)N4)c(F)c2)ccn1 [Compound k, 4-(3-Fluoro-4-((2-oxo-3-(propan-2-ylidene)indoline)-5-sulfonamido)phenoxy)-N-methylpicolinamide]
PC-3 cells [1]; PC-3, 24 h
  pIC50: < 4.52
PC-3 cells [1]; PC-3, 72 h
  pIC50: < 4.52
DU145 cells [2]; DU145, 24 h
  pIC50: < 4.52
DU145 cells [2]; DU145, 72 h
  pIC50: < 4.52
DU145 cells [3]
  levels of active form of β-catenin and Snail: reduced the levels
A549 cells [4]
  phosphorylation of p-Smad3 T179 and RNA Pol II pSer2/5: significantly reversed
DU145 cells [5]; TGF-β1 10 ng/mL
  binding of CDK8 to RNA polymerase II (Ser2/5), Smad3 and Pin1 (immunoprecipitation): inhibited
DU145 cells [5]; TGF-β1 10 ng/mL 1 h
  phosphorylation of Smad3 and RNA polymerase II in nuclear fraction: markedly suppressed
DU145 cells [5]; TGF-β1 10 ng/mL 24 h
  expression of mesenchymal markers (N-cadherin, Snail): significantly downregulated
A549 cells [6]
  cell viability: did not significantly change
PC-3 cells [7]
  Snail expression: markedly inhibited
